From PMC6508677, “Identification of druggable small molecule antagonists of the Plasmodium falciparum hexose transporter PfHT and assessment of ligand access to the glucose permeation pathway via FLAG-mediated protein engineering” (PLoS ONE, 2019)
Several values for one entry are separate records, joined by “and”; a condition that tells them apart may be missing. Identical values can stand only once.

How the values were obtained:
[1] = target: T1, PfHT (Plasmodium falciparum, UniProt Q7KWJ5); assay: ATB-BMPA photolabel binding to PfHT liposomes; design: expressed in transfected cells
T1 sequence (Q7KWJ5 1-504): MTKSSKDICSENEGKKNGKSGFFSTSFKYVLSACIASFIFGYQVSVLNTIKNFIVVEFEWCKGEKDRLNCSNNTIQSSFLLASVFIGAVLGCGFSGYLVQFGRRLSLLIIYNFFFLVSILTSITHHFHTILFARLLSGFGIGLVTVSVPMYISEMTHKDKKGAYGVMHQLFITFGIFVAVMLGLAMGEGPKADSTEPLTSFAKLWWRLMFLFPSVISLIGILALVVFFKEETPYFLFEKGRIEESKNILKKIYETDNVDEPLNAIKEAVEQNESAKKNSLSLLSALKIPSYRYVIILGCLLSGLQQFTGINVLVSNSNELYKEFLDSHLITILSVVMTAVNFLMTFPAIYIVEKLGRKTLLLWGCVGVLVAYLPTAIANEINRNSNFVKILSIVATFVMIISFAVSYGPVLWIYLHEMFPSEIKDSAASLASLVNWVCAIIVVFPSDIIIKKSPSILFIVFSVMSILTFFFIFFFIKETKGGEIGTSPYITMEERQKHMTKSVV
Description: WU-1 inhibitor was added to PfHT liposomes for 10 min at room temperature. Samples (final volume, 110 μl) were then incubated for 10 min at room temperature with biotinylated ATB-BMPA (50 μM final concentration) and then placed on ice prior to UV irradiation. Reactions were transferred to a 24-well low protein retention culture dish (Costar, Corning, NY) and then irradiated at room temperature 5 cm from a Green Spot UV lamp for 1 min (30 sec of light followed by 30 sec of darkness followed by 30 sec of light). Unbound ATB-BMPA was removed using a 0.5 ml Zeba Spin Column (Thermo Scientific, Rockford, IL). Samples were analyzed by immunoblot analysis using a fluorescently labeled streptavidin (LI-COR Biosciences, Lincoln, NE). The amount of PfHT protein in each sample was quantified by SDS-PAGE stained with Blue BANDIT protein stain using a BSA standard curve. The streptavidin signal was then normalized to the amount of PfHT protein.

[2] = target: T1, PfHT; assay: [3H]-D-fructose uptake by HEK293 cells overexpressing PfHT; format: cell-based; design: expressed in transfected cells; host or cells: HEK293 (HEK293-FLIP, native hGLUT1 knocked down by shRNA)
Source text: Generation of HEK293 cells overexpressing PfHT and human GLUTs 1–4 were described elsewhere. Briefly, HEK293 cells were transfected with pcDNA3.1 FLII12Pglu-7006 (Addgene), containing the fluorescence resonance energy transfer (FRET) glucose sensor (HEK293-FLIP) and PfHT, human GLUT1 (hGLUT1), hGLUT2, hGLUT3, hGLUT4, hGLUT5 or hGLUT8 using Optifect (Life Technologies) according to manufacturer’s specifications. To increase retention of GLUT8 at the plasma membrane, the dileucine sorting signal E^7E^8XXXLL was modified to R^7R^8XXXLL as described in [17]. Stable transfectants were selected for G418 and hygromycin resistance to select for FRET sensor and hexose transporter, respectively. HEK293-FLIP cells were also used to generate cells stably transfected with FLAG-tagged PfHT (FTPfHT). FLAG tag ([…]) followed by a triple glycine linker and a tobacco etch virus (TEV) protease site (ENLYFQS) followed by a triple glycine linker was added to the N-terminus of PfHT via PCR [18] using Phusion Hot Start II High-Fidelity DNA Polymerase (Fisher Scientific). Single clones were selected by comparing their abilities to transport glucose as assayed via FRET and radiolabeled hexose uptake. In all cell lines, except for HEK293 cells overexpressing hGLUT1 and hGLUT5, native hGLUT1 was knocked down using shRNA as described elsewhere. Transcript levels of the individual GLUTs expressed in each cell line are as described in [13, 15] and in S1 Fig.
Glucose uptake by P. falciparum was performed essentially as described. P. falciparum strain 3D7 was cultured in 100 mm tissue culture dishes (Techno Plastic Products) in a 2% suspension of human erythrocytes and RPMI 1640 medium until reaching > 7.5% parasitemia. Cells were pelleted via centrifugation and resuspended in RPMI 1640 medium. To determine the uptake of radiolabeled glucose into the parasite, parasites were isolated from infected erythrocytes by permeablization with saponin (0.05 w/v), followed by centrifugation, aspiration of supernatant and washing of the pellet 3X with saline solution (135 mM NaCl, 2 mM KCl, 25 mM HEPES, 0.2 mM glucose and 1 mM MgCl2; pH 7.1) to remove cellular debris. WU-1 or DMSO vehicle were added to 100 μl parasites (resuspended in saline) 5 min prior to the addition of 100 μl [^14C]2-DOG (0.2- μCi/ml final concentration). 2-DG uptake was stopped after 2 min by layering the entire reaction over 300 μl of an oil mixture (5:4 mix of dibutyl phthalate / dinonyl phthalate) in Eppendorf tubes and centrifuged at 15,850 × g for 2 mins. The ratio of the estimated intracellular concentration of radiolabel relative to the extracellular concentration were calculated as described. Uptake of radiolabeled hexose into HEK293 cells was measured in glucose-free HBSS as described previously. Briefly, cells were plated at 400,000 cells/well overnight at 37°C in 24-well plates pre-treated with PEI. After 30-min incubation at 37°C in glucose-free HBSS in the presence of vehicle or increasing concentrations of compound, 2-DG uptake was measured in glucose-free HBSS for 4 min at 37°C. Cultures were washed in ice-cold 1X PBS and lysed in 0.1% Triton X-100 in 1X PBS. Radiolabeled hexose uptake was determined by liquid scintillation counting (Ultima Gold, Thermo Fisher) and normalized to total protein per well. Uptake data are plotted as percent uptake relative to vehicle-treated cells. Kinetic analyses were performed using the indicated concentrations of substrate and WU-1, with quenching of uptake after 1 min incubation. Incubation times had been previously determined as being in the linear range of time-dependent radiolabeled hexose uptake (2 min for 2-DG uptake into freed parasites; 2 and 4 min for D-Frc and 2-DG uptake HEK cell lines, respectively). Data were fit by least squares nonlinear regression analysis using GraphPad Prism 6.0 software.

## Cc1ccc(S(=O)(=O)CCNC(=O)c2c(-c3c(Cl)cccc3Cl)noc2C)cc1 [WU-1, 3-(2,6-dichlorophenyl)-5-methyl-N-[2-(4-methylbenzenesulfonyl)ethyl]-1,2-oxazole-4-carboxamide]
[1]; 10 μM WU-1, PfHT liposomes
  decrease of biotinylated ATB-BMPA photolabel binding to PfHT: ~ 60%
[1]; 10µM WU-1, individual samples
  ATB-BMPA labeling, Strep signal: 15.08 and 15.68 and 15.48
  ATB-BMPA labeling, Strep/Protein: 1.91 and 1.96 and 1.99
  ATB-BMPA labeling, Strep/Protein normalized to 100% Control: 40.83 and 41.46
[1]; 10µM WU-1, mean of 3
  ATB-BMPA labeling, normalized Ave: 40.69
[1]; read-out: ATB-BMPA labeling, Strep/Protein normalized to 100% Control, 10µM WU-1, individual samples
  remaining activity at 10 µM: 39.8%
[2]; AVE IC50 (µM), PfHT, D-frc Uptake, average of Expt 1-3
  IC50: 4.99 µM
[2]; HEK293, 2 min, read-out: D-frc Uptake AVE, PfHT, concentration 0.001 µM, Expt 1-3
  remaining activity at 0.001 µM: 101%
[2]; HEK293, 2 min, read-out: D-frc Uptake AVE, PfHT, concentration 0.63 µM
  remaining activity at 0.63 µM: 80.7%
[2]; HEK293, 2 min, read-out: D-frc Uptake AVE, PfHT, concentration 1.25 µM
  remaining activity at 1.25 µM: 72.3%
[2]; HEK293, 2 min, read-out: D-frc Uptake AVE, PfHT, concentration 2.50 µM
  remaining activity at 2.5 µM: 68.5%
[2]; HEK293, 2 min, read-out: D-frc Uptake AVE, PfHT, concentration 5.00 µM
  remaining activity at 5 µM: 49.6%
[2]; HEK293, 2 min, read-out: D-frc Uptake AVE, PfHT, concentration 10.00 µM
  remaining activity at 10 µM: 37.9%
[2]; HEK293, 2 min, read-out: D-frc Uptake AVE, PfHT, concentration 20.00 µM
  remaining activity at 20 µM: 22.3%
[2]; HEK293, 2 min, read-out: D-frc Uptake AVE, PfHT, concentration 40.00 µM
  remaining activity at 40 µM: 15.6%
[2]; HEK293, 2 min, read-out: D-frc Uptake AVE, PfHT, concentration 80.00 µM
  remaining activity at 80 µM: 10.7%
[2]; HEK293, 2 min, read-out: D-frc Uptake AVE, PfHT, concentration 225.00 µM
  remaining activity at 225 µM: 8.85%
[2]; HEK293, 2 min, read-out: D-frc Uptake AVE, PfHT, concentration […]
  remaining activity at 160 µM: 7.62%
[2]; IC50 (µM), PfHT, D-frc Uptake, single experiments Expt 1-3
  IC50: 4.57 µM and 6.26 µM and 4.14 µM
[2]; IC50, D-fructose (Frc) uptake, PfHT cell line
  IC50: 5 ± 0.7 µM
[2]; reference value
  Selectivity Index, Frc, PfHT line itself: 1.0
